The text below walks through data of US20150305372A1, “FEED INTAKE OF RUMINANTS USING GREEN FODDER FLAVORS” (BASF SE, priority 2014, published 2015).

The assay has as its system dairy cows having a high milk performance (German Holstein cattle). In words: Feeding study of trans-hex-2-enal and hexanal on feed intake, feed intake behavior, milk performance and milk composition of dairy cows. The class given is in vivo. Particulars: for FMI (fresh matter intake): 4.3 g/cow/day in TMR via wheat bran premix, control 43.6; for FMI (fresh matter intake) / Milk protein yield / Milk fat yield / DMI (% of BW) / Milk protein / Milk fat / DMI / ECM (energy-corrected milk) / Milk yield / Eating period / Frequency of visits: LSQ means; for FMI (fresh matter intake) / DMI / Eating period: p < 0.05; for Milk protein yield / Milk fat yield / DMI (% of BW) / Milk protein / Milk fat / DMI / ECM (energy-corrected milk) / Milk yield / Eating period / Frequency of visits: 4.3 g/cow/day in TMR; for Milk protein yield: control 1.04; for Milk fat yield: control 1.16; for DMI (% of BW): control 3.3; for Milk protein: control 3.36; for Milk fat: control 3.69; for DMI: control 22.2; for ECM (energy-corrected milk): control 30.2; for Milk yield: control 31.6; for Eating period: control 184; for Frequency of visits: visits to feed trough per day, control 33.1, p < 0.0001; for dry matter intake (DMI) compared with the control group, in words: A vs control p<0.067, B vs control p<0.0234; for visits to the feed trough: control 33.1 visits per day; for fresh matter intake (FMI) compared with the control group, in words: p<0.0001; for more frequent visits to the feed trough than the control group: per day, versus control group. As to the method:
The purpose of the present study is to establish whether 4.3 g/cow/day of trans-hex-2-enal or 4.3 g/cow/day of hexanal affect the DMI value, the milk performance, the milk composition or the feed intake behavior (duration, frequency, etc.) of dairy cows.
The start of the study was calendar week 18 of the experimental year and the end of the study was calendar week 24 of the same year. The feed consumption was determined by means of feed troughs with electronic weight determination, produced by Insentec B.V. (Marknesse, Netherlands). The system identifies each animal by scanning the respective transponder on the neck band of the respective cow using a light barrier. After identification, the animal is allowed free access to the feed trough and the amount of feed taken in on each visit to the trough is recorded automatically.
The system thus determines all visits of each cow to the feed trough, the respective feed intake and the duration of the respective visit. The feed troughs were filled once a day at about 06.30 hours in the morning with an amount of about 70 kg of feed, after the residual feed of the previous day had been removed. During the morning milking, the feed troughs were closed for cleaning for a period of 20 to 30 minutes.
The milk yield was determined individually during each milking process and recorded by the Herd Management Software DairyPlan C21 (GEA Farm Technologies, Boenen, Germany). The cows were milked twice daily at 05.00 hours in the morning and 15.30 hours in the afternoon. Fresh water was freely available at all times.
Every Monday, after each milking, milk samples were taken and, for each cow, the milk composition (fat, protein, somatic cell count) was determined. The energy-corrected milk value (ECM) was determined according to the following equation: […]
All of the cows received a total mixed ration (TMR) (table 2) having a calculated mean daily feed intake of 22 kg of dry matter (DM). Trans-hex-2-enal and hexanal were added to the TMR and thus fed by a premix with wheat bran (trans-hex-2-enal/wheat bran for group A and hexanal/wheat bran for group B).
Samples of the TMR were withdrawn daily from each of the rations, combined to form a weekly sample and frozen until determination of the DM content of the TMRs. Samples of all feed components were taken every 14 days, frozen and pooled over the entire feeding trial up until laboratory analysis.
A standard model for statistical analysis using all parameters was adapted to the weekly data. This is a general, linear, mixed model with the cow as a chance effect and containing the following co-variables:
For the treatment effect, an “overall” P value was presented, and also a P value for the differences between the groups, which were tested both adapted and also non-adapted by means of the Tukey test.

Each structure is given as a SMILES string. “Also recorded” adds a separate entry of the source. Marks after values point to notes of the source that are not given here.

On to `CCCCCC=O` [Hexanal, hexanal], for which the “FMI (fresh matter intake)” value is recorded as 48.3^b kg/d, the Milk protein yield came to 1.06 kg/day, the Milk fat yield amounted to 1.22 kg/day and the “DMI (% of BW)” value was 3.7 % of BW. In addition, the Milk protein worked out at 3.28%, the Milk fat is 3.77%, the DMI is 23.8^b kg/d and the “ECM (energy-corrected milk)” value worked out at 31.3 kg/day. In addition, the Milk yield was 32.7 kg/day, the Eating period is reported as 212^b min and the Frequency of visits is given as 45.2^b. Further, under “4.3 g/cow/day”, the “daily FMI value, mean” value is reported as 48.3 kg FMI per day; the “daily milk production and milk composition compared with the control group, in words” value is recorded as “no differences”; the “dry matter intake (DMI) compared with the control group, in words” value is “significant advantage”; the “visits to the feed trough” value stood at 45.2 times per day. Moreover, where the note is “4.3 g/cow/day”, the “fresh matter intake (FMI) compared with the control group, in words” value is “higher; also recorded: significantly increased” and the “more frequent visits to the feed trough than the control group” value worked out at 37%.

As to `CCC/C=C/C=O` [Trans-hex-2-enal], the “FMI (fresh matter intake)” value is reported as 47.8^b kg/d, the Milk protein yield came to 1.06 kg/day, the Milk fat yield is 1.19 kg/day and the “DMI (% of BW)” value was 3.6 % of BW. Moreover, the Milk protein turned out to be 3.26%, the Milk fat was determined as 3.66%, the DMI is 23.5^ab kg/d and the “ECM (energy-corrected milk)” value came to 31.1 kg/day. In addition, the Milk yield amounted to 33.1 kg/day, the Eating period was 206^ab min and the Frequency of visits is listed as 48.6^b. Besides, under “4.3 g/cow/day”, the “daily milk production and milk composition compared with the control group, in words” value is “no differences”; the “dry matter intake (DMI) compared with the control group, in words” value is reported as “significant advantage”; the “visits to the feed trough” value is 48.6 times per day; the “fresh matter intake (FMI) compared with the control group, in words” value is on record as “higher; also recorded: significantly increased”. The “more frequent visits to the feed trough than the control group” value (4.3 g/cow/day) is recorded as 47%.
